Test results: patent US6858591B2, “Antibiotic AA 896 analogs” (Wyeth Holdings Corporation, priority 2001, dated 2005)
Converted amounts (≈) assume the structure as drawn. Read-outs that look alike come from different tables or passages of the source.

How the values were obtained:
Experiment in all cases: In vitro MIC, broth dilution
Assay type in all cases: cell-based
[1] = test system: P. aeruginosa GC 2214; settings: Pseudomonas aeruginosa, GC2214
[2] = test system: M. morganii GC 4531; settings: Morganella morganii, GC4531
[3] = test system: E. cloacae GC 3783; settings: Enterobacter cloacae, GC3783
[4] = test system: E. coli GC 2203; settings: Escherichia coli, GC2203
[5] = test system: E. faecalis GC 4555; settings: Enterococcus faecalis, GC4555
Method in brief: (§1)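 Serial antibiotic dilutions (64-0.06 μg/ml) in Mueller-Hinton II were challenged with 5×10^5 CFU/ml bacteria. After an 18 hour ambient-air incubation at 35° C, the lowest concentration inhibiting growth was recorded as MIC, following NCCLS recommendations.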

[6] = test system: CNS GC 4537
Method in brief: as §1

[7] = test system: CNS GC 4547
Method in brief: as §1

[8] = test system: S. aureus GC 1131; settings: Staphylococcus aureus, GC1131
Method in brief: as §1

[9] = test system: E. faecalis GC 2242; settings: Enterococcus faecalis, GC2242
Method in brief: as §1

[10] = test system: S. aureus GC 2216; settings: Staphylococcus aureus, GC2216
Method in brief: as §1

[11] = test system: CNS GC 4538
Method in brief: as §1

[12] = test system: E. faecalis GC 842; settings: Enterococcus faecalis, GC842
Method in brief: as §1

[13] = test system: S. aureus GC 4536; settings: Staphylococcus aureus, GC4536
Method in brief: as §1

[14] = test system: E. coli GC 4559; settings: Escherichia coli, GC4559
[15] = test system: E. coli GC 4560; settings: Escherichia coli, GC4560
[16] = test system: E. coli GC 3226; settings: Escherichia coli, GC3226
[17] = test system: C. albicans GC 3066; settings: Candida albicans, GC3066
[18] = test system: P. aeruginosa GC 4532; settings: Pseudomonas aeruginosa, GC4532
[19] = test system: K. pneumoniae GC 4534; settings: Klebsiella pneumoniae, GC4534
[20] = test system: S. marcescens GC 4077; settings: Serratia marcescens, GC4077
[21] = P. aeruginosa GC 2214, read-out: MIC
[22] = M. morganii GC 4531, read-out: MIC
[23] = E. cloacae GC 3783, read-out: MIC
[24] = E. faecalis GC 4555, read-out: MIC
[25] = S. aureus GC 1131, read-out: MIC
[26] = E. faecalis GC 2242, read-out: MIC
[27] = S. aureus GC 2216, read-out: MIC
[28] = E. faecalis GC 842, read-out: MIC
[29] = S. aureus GC 4536, read-out: MIC
[30] = C. albicans GC 3066, read-out: MIC
[31] = P. aeruginosa GC 4532, read-out: MIC
[32] = K. pneumoniae GC 4534, read-out: MIC
[33] = S. marcescens GC 4077, read-out: MIC

| SMILES | MIC [1, 21] [µg/mL] | MIC [2, 22] [µg/mL] | MIC [3, 23] [µg/mL] | MIC ([4]; E. coli GC 2203, read-out: MIC) [µg/mL] | MIC [5, 24] [µg/mL] | MIC ([6]; CNS GC 4537, read-out: MIC) [µg/mL] | MIC ([7]; CNS GC 4547, read-out: MIC) [µg/mL] | MIC [8, 25] [µg/mL] | MIC [9, 26] [µg/mL] | MIC [10, 27] [µg/mL] | MIC ([11]; CNS GC 4538, read-out: MIC) [µg/mL] | MIC [12, 28] [µg/mL] | MIC [13, 29] [µg/mL] | MIC ([14]; E. coli GC 4559, read-out: MIC) [µg/mL] | MIC ([15]; E. coli GC 4560, read-out: MIC) [µg/mL] | MIC ([16]; E. coli GC 3226, read-out: MIC) [µg/mL] | MIC [17, 30] [µg/mL] | MIC [18, 31] [µg/mL] | MIC [19, 32] [µg/mL] | MIC [20, 33] [µg/mL] | further results |
| --- | --- | --- | --- | --- | --- | --- | --- | --- | --- | --- | --- | --- | --- | --- | --- | --- | --- | --- | --- | --- | --- |
| COc1ccc(Cn2c(=O)ccn([C@@H]3OC([C@H](O)[C@H](NCCCNC(=O)[C@H](CC(C)C)NC(=O)[C@H](CCCNC(=N)N)NC(=O)N[C@H](C(=O)O)C(C)C)C(=O)OC(C)(C)C)[C@@H](O[Si](C)(C)C(C)(C)C)[C@H]3O[Si](C)(C)C(C)(C)C)c2=O)cc1 (stereo partly drawn) [Example 29, (2S,6S,9S,16S)-6-(3-{[Amino(imino)methyl]amino}propyl)-16-[(R)-[(3R,4R,5R)-3,4-bis{[tert-butyl(dimethyl)silyl]oxy}-5-(3-(4-methoxybenzyl)-2,4-dioxo-3,4-dihydro-1(2H)-pyrimidinyl)tetrahydro-2-furanyl](hydroxy)methyl]-9-isobutyl-2-isopropyl-19,19-dimethyl-4,7,10,17-tetraoxo-18-oxa-3,5,8,11,15-pentaazaicosan-1-oic acid] | – | – | – | – | – | – | – | – | – | – | – | – | – | – | – | – | – | – | – | – | MIC [1]: 128 µg/mL (≈ 107 µM); MIC [2]: 128 µg/mL (≈ 107 µM); MIC [3]: 128 µg/mL (≈ 107 µM); MIC [4]: > 128 µg/mL; MIC [5]: > 128 µg/mL; MIC [6]: > 128 µg/mL; MIC [7]: > 128 µg/mL; MIC [8]: > 128 µg/mL; MIC [9]: 128 µg/mL (≈ 107 µM); MIC [10]: > 128 µg/mL; MIC [11]: > 128 µg/mL; MIC [12]: 128 µg/mL (≈ 107 µM); MIC [13]: > 128 µg/mL; MIC [14]: > 128 µg/mL; MIC [15]: 128 µg/mL (≈ 107 µM); MIC [16]: > 128 µg/mL; MIC [17]: > 128 µg/mL; MIC [18]: 128 µg/mL (≈ 107 µM); MIC [19]: 128 µg/mL (≈ 107 µM); MIC [20]: 128 µg/mL (≈ 107 µM) |
| COc1ccc(Cn2c(=O)ccn([C@@H]3OC([C@H](O)[C@H](NCCCNC(=O)[C@@H](N)CC(C)C)C(=O)OC(C)(C)C)[C@@H](O[Si](C)(C)C(C)(C)C)[C@H]3O[Si](C)(C)C(C)(C)C)c2=O)cc1 (stereo partly drawn) [Example 5, tert-Butyl (2S,3R)-2-[(3-{[(2S)-2-amino-4-methylpentanoyl]amino}propyl)amino]-3-[(3R,4R,5R)-3,4-bis{[tert-butyl(dimethyl)silyl]oxy}-5-(3-(4-methoxybenzyl)-2,4-dioxo-3,4-dihydro-1(2H)-pyrimidinyl)tetrahydro-2-furanyl]-3-hydroxypropanoate] | > 128 | > 128 | > 128 | > 128 | 8 (≈ 8.97 µM) | 4 (≈ 4.48 µM) | 64 (≈ 71.7 µM) | 32 (≈ 35.9 µM) | 4 (≈ 4.48 µM) | 8 (≈ 8.97 µM) | 8 (≈ 8.97 µM) | 16 (≈ 17.9 µM) | 16 (≈ 17.9 µM) | > 128 | > 128 | > 128 | > 128 | > 128 | > 128 | > 128 | – |
| COc1ccc(Cn2c(=O)ccn([C@@H]3OC([C@H](O)[C@H](NCCCNC(=O)[C@H](CC(C)C)NC(=O)[C@H](CCCNC(=N)N[N+](=O)[O-])NC(=O)N[C@H](C(=O)OCc4ccccc4)C(C)C)C(=O)O)[C@@H](O)[C@H]3O)c2=O)cc1 (stereo partly drawn) [Example 49, (4S,8S,11S,18S)-18-[(R)-[(3S,4R,5R)-3,4-Dihydroxy-5-(3-(4-methoxybenzyl)-2,4-dioxo-3,4-dihydro-1(2H)-pyrimidinyl)tetrahydro-2-furanyl](hydroxy)methyl]-8-(3-{[(2,2-dioxido-2lambda˜1˜-diazanyl)(imino)methyl]amino}propyl)-11-isobutyl-4-isopropyl-3,6,9,12-tetraoxo-1-phenyl-2-oxa-5,7,10,13,17-pentaazanonadecan-19-oic acid] | 128 (≈ 123 µM) | 128 (≈ 123 µM) | > 128 | > 128 | > 128 | – | – | > 128 | 128 (≈ 123 µM) | > 128 | – | 128 (≈ 123 µM) | > 128 | > 128 | > 128 | > 128 | 128 (≈ 123 µM) | 128 (≈ 123 µM) | > 128 | > 128 | MIC [6]: > 128 µg/mL; MIC [7]: > 128 µg/mL; MIC [11]: > 128 µg/mL |

More lines, main results first:

| MIC [1, 21] [µg/mL] | MIC [2, 22] [µg/mL] | MIC [3, 23] [µg/mL] | MIC ([4]; E. coli GC 2203, read-out: MIC) [µg/mL] | MIC [5, 24] [µg/mL] | MIC ([6]; CNS GC 4537, read-out: MIC) [µg/mL] | MIC ([7]; CNS GC 4547, read-out: MIC) [µg/mL] | MIC [8, 25] [µg/mL] | MIC [9, 26] [µg/mL] | MIC [10, 27] [µg/mL] | MIC ([11]; CNS GC 4538, read-out: MIC) [µg/mL] | MIC [12, 28] [µg/mL] | MIC [13, 29] [µg/mL] | MIC ([14]; E. coli GC 4559, read-out: MIC) [µg/mL] | MIC ([15]; E. coli GC 4560, read-out: MIC) [µg/mL] | MIC ([16]; E. coli GC 3226, read-out: MIC) [µg/mL] | MIC [17, 30] [µg/mL] | MIC [18, 31] [µg/mL] | MIC [19, 32] [µg/mL] | MIC [20, 33] [µg/mL] | SMILES | further results |
| --- | --- | --- | --- | --- | --- | --- | --- | --- | --- | --- | --- | --- | --- | --- | --- | --- | --- | --- | --- | --- | --- |
| 128 (≈ 173 µM) | 128 (≈ 173 µM) | > 128 | > 128 | 128 (≈ 173 µM) | > 128 | > 128 | > 128 | 128 (≈ 173 µM) | > 128 | > 128 | 128 (≈ 173 µM) | > 128 | > 128 | 128 (≈ 173 µM) | > 128 | 128 (≈ 173 µM) | 128 (≈ 173 µM) | > 128 | 128 (≈ 173 µM) | COc1ccc(Cn2c(=O)ccn([C@@H]3OC([C@H](O)[C@H](NCCCNC(=O)[C@H](CC(C)C)NC(=O)OCc4ccccc4)C(=O)O)[C@@H](O)[C@H]3O)c2=O)cc1 (stereo partly drawn) [Example 52, (5S,12S)-12-[(R)-[(3S,4R,5R)-3,4-Dihydroxy-5-(3-(4-methoxybenzyl)-2,4-dioxo-3,4-dihydro-1(2H)-pyrimidinyl)tetrahydro-2-furanyl](hydroxy)methyl]-5-isobutyl-3,6-dioxo-1-phenyl-2-oxa-4,7,11-triazatridecan-13-oic acid] | – |
| > 128 | > 128 | > 128 | > 128 | > 128 | > 128 | > 128 | > 128 | > 128 | > 128 | > 128 | > 128 | > 128 | > 128 | > 128 | > 128 | > 128 | > 128 | > 128 | > 128 | CCOC(=O)C(NCCCNC(=O)[C@@H](N)[C@H](C)O)[C@@H](O)[C@H]1O[C@@H](n2ccc(=O)[nH]c2=O)[C@H](OC(C)=O)[C@@H]1OC(C)=O (stereo partly drawn) [Example 33, Ethyl (3R)-2-[(3-{[(2S,3S)-2-amino-3-hydroxybutanoyl]amino}propyl)amino]-3-[(2R,3R,4R,5R)-3,4-bis(acetyloxy)-5-(2,4-dioxo-3,4-dihydro-1(2H)-pyrimidinyl)tetrahydro-2-furanyl]-3-hydroxypropanoate] | – |
| 128 (≈ 211 µM) | > 128 | > 128 | > 128 | 128 (≈ 211 µM) | > 128 | > 128 | > 128 | 128 (≈ 211 µM) | > 128 | > 128 | 128 (≈ 211 µM) | > 128 | > 128 | 128 (≈ 211 µM) | > 128 | 128 (≈ 211 µM) | 128 (≈ 211 µM) | > 128 | > 128 | COc1ccc(Cn2c(=O)ccn([C@@H]3OC([C@H](O)[C@H](NCCCNC(=O)[C@@H](N)CC(C)C)C(=O)O)[C@@H](O)[C@H]3O)c2=O)cc1 (stereo partly drawn) [Example 53, (2S,3R)-2-[(3-{[(2S)-2-Amino-4-methylpentanoyl]amino}propyl)amino]-3-[(3S,4R,5R)-3,4-dihydroxy-5-(3-(4-methoxybenzyl)-2,4-dioxo-3,4-dihydro-1(2H)-pyrimidinyl)tetrahydro-2-furanyl]-3-hydroxypropanoic acid] | – |
